Earlier results in patent US20230157949A1, “ORAL FILM OF HIV DRUGS” (LAURUS LABS LIMITED, priority 2020, published 2023).

Settings: in combination with low doses of ritonavir

Compound: Cc1cccc(C)c1OCC(=O)N[C@@H](Cc1ccccc1)[C@@H](O)C[C@H](Cc1ccccc1)NC(=O)[C@H](C(C)C)N1CCCNC1=O [lopinavir, Lopinavir]
- increase of AUC: greater than 100 fold
